Drawing on US20240425464A1, “Substituted Monohydrazides as Potent Antifungal Agents” (University of Kentucky Research Foundation, priority 2023, published 2024), this text covers MIC for four molecules.

Converted amounts (≈) assume the structure as drawn.

In assay [1] the test system is C. auris AR Bank #381. The experiment in a line: MIC determination by in vitro antifungal assay. The class given is cell-based, Candida auris. To be noted: Candidozyma auris; C. auris AR Bank #381; read-out: MIC. Summed up:
(§1)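 RPMI 1640 (L-glutamine, no bicarbonate), 0.165 M MOPS, pH 7.0, 35° C. Inoculum: growing culture set to OD600 0.12 (˜1×10^6 CFU/mL), diluted 1:100. CDC AR Bank isolates.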

The subject of assay [2] is C. auris AR Bank #382. As to the kind of experiment: MIC determination by in vitro antifungal assay. It is filed as cell-based, Candida auris. To be noted: Candidozyma auris; C. auris AR Bank #382; read-out: MIC. Summed up:
as §1

The test system of assay [3] is C. auris AR Bank #383. The experiment in a line: MIC determination by in vitro antifungal assay. It is filed as cell-based, Candida auris. Conditions: Candidozyma auris; C. auris AR Bank #383; read-out: MIC. The essentials: as §1
Assay [4] concerns C. auris AR Bank #385. As to the kind of experiment: MIC determination by in vitro antifungal assay. The class given is cell-based, Candida auris. Conditions: Candidozyma auris; C. auris AR Bank #385; read-out: MIC. The essentials: as §1
For assay [5], the system named is C. auris AR Bank #386. As to the kind of experiment: MIC determination by in vitro antifungal assay. Conditions: Candidozyma auris; C. auris AR Bank #386; read-out: MIC. The class given is cell-based, Candida auris. The essentials: as §1
Assay [6] relates to C. auris AR Bank #387. As to the kind of experiment: MIC determination by in vitro antifungal assay. To be noted: Candidozyma auris; C. auris AR Bank #387; read-out: MIC. It is filed as cell-based, Candida auris. The essentials: as §1
Assay [7] deals with C. auris AR Bank #388. As to the kind of experiment: MIC determination by in vitro antifungal assay. The class given is cell-based, Candida auris. To be noted: Candidozyma auris; C. auris AR Bank #388; read-out: MIC. Summed up: as §1
The subject of assay [8] is C. auris AR Bank #389. As to the kind of experiment: MIC determination by in vitro antifungal assay. It is filed as cell-based, Candida auris. To be noted: Candidozyma auris; C. auris AR Bank #389; read-out: MIC. Summed up: as §1
Assay [9] relates to Candida duobushaemulonii AR Bank #391. As to the kind of experiment: MIC determination by in vitro antifungal assay. It is filed as cell-based. Conditions: Candidozyma duobushaemuli, read-out: MIC. The procedure:
(§2) The antifungal agent amphotericin B (AmB) was purchased from VWR (Radnor PA, USA). AmB was dissolved in DMSO at a final concentration of 5 mg/mL and was stored at −20° C., protected from light. Candida albicans American Type Culture Collection (ATCC) 10231 (strain A), C. albicans ATCC 64124 (B), and C. albicans ATCC MYA-2876 (C) were obtained from Utah State University. C. albicans ATCC 90819 (D), C. albicans ATCC MYA-2310 (E), C. albicans ATCC MYA-1237 (F), C. albicans ATCC MYA-1003 (G), Candida glabrata ATCC 2001 (H), Candida krusei ATCC 6258 (I), Candida parapsilosis ATCC 22019 (J), Cryptococcus neoformans ATCC MYA-895 (M), Aspergillus terreus ATCC MYA-3633 (N), and Aspergillus flavus ATCC MYA-3631 (0) were obtained from the American Type Culture Collection (ATCC; Manassas, VA, USA). Aspergillus nidulans ATCC 38163 (P) was obtained from University of Kentucky. Clinically derived Aspergillus fumigatus NRRL 163 (Q), A. fumigatus NRRL 5109 (R), and A. fumigatus NRRL 6113 (S) were obtained from Northern Regional Research Laboratory (NRRL). Candida auris 384 (K), C. auris 390 (L), and fungal strains 381-400 (including 10 C. auris (AR Bank #381-390), 3 Candida duobushaemulonii (AR Bank #391, AR Bank #392, and AR Bank #394), 2 Candida haemulonii (AR Bank #393 and AR Bank #395), 1 Kodameae ohmeri (AR Bank #396), 1 C. krusei (AR Bank #397), 1 Candida lusitaniae (AR Bank #398), and 2 Saccharomyces cerevisiae strains (AR Bank #399 and AR Bank #400)) were part of a larger fungal library from the AR Bank maintained by the Centers for Disease Control and Prevention (CDC; Atlanta, GA, USA). Filamentous fungi and yeasts were cultivated at 35° C. in RPMI 1640 medium (with L-glutamine, without sodium bicarbonate, Sigma-Aldrich, St. Louis, MO) buffered to a pH of 7.0 with 0.165 M morpholinepropanesulfonic acid (MOPS) buffer (Sigma-Aldrich). For cytotoxicity assays, HepG2 and the mouse macrophage cell line J774A.1 were obtained from University of Kentucky. The human embryonic kidney cell line, HEK-293, was bought from the ATCC. Mammalian cells were grown in Dulbecco's Modified Eagle's Medium (DMEM) (from VWR) with 10% fetal bovine serum (FBS) (from VWR) and 1% Pen/Strep (from ATCC). Cell lines were cultured at 37° C. with 5% CO2 and passaged by trypsinization with 0.05% trypsin: 0.53 mM EDTA (from Sigma-Aldrich).
(§3) From the actively growing yeast culture, 100 µL were then transferred to 900 μL of RPMI 1640 medium and re-adjusted to achieve OD600 of 0.12 (˜1×10^6 CFU/mL). The cell suspension was further diluted to achieve 1:100 in RPMI 1640 medium.

Assay [10] deals with Candida duobushaemulonii AR Bank #392. The experiment in a line: MIC determination by in vitro antifungal assay. It is filed as cell-based. To be noted: Candidozyma duobushaemuli, read-out: MIC. The procedure: as §2, §3
Assay [11] concerns Candida duobushaemulonii AR Bank #394. The experiment in a line: MIC determination by in vitro antifungal assay. To be noted: Candidozyma duobushaemuli, read-out: MIC. It is filed as cell-based. The protocol:
as §2, §3

The subject of assay [12] is Candida haemulonii AR Bank #393. The experiment in a line: MIC determination by in vitro antifungal assay. It is filed as cell-based. To be noted: Candidozyma haemuli, read-out: MIC. The procedure:
as §2, §3

Assay [13] relates to Candida haemulonii AR Bank #395. As to the kind of experiment: MIC determination by in vitro antifungal assay. To be noted: Candidozyma haemuli, read-out: MIC. It is filed as cell-based. The procedure: as §2, §3
Assay [14] relates to Candida krusei AR Bank #397. As to the kind of experiment: MIC determination by in vitro antifungal assay. The class given is cell-based. Conditions: Pichia kudriavzevii; Candida strain AR Bank #397; read-out: MIC. The protocol: as §2, §3
The test system of assay [15] is Candida lusitaniae AR Bank #398. As to the kind of experiment: MIC determination by in vitro antifungal assay. The class given is cell-based. To be noted: Clavispora lusitaniae; Candida strain AR Bank #398; read-out: MIC. The procedure:
as §2, §3

The test system of assay [16] is Kodameae ohmeri AR Bank #396. The experiment in a line: MIC determination by in vitro antifungal assay. It is filed as cell-based. Conditions: strain AR Bank #396; read-out: MIC. The procedure: as §2, §3
Assay [17] deals with Saccharomyces cerevisiae AR Bank #399. The experiment in a line: MIC determination by in vitro antifungal assay. The class given is cell-based. To be noted: read-out: MIC. The protocol:
as §2, §3

The subject of assay [18] is panel of ten C. auris strains (AR Bank #381-390). The experiment in a line: MIC determination, summary over the C. auris panel. The class given is cell-based, Candida auris. To be noted: Candidozyma auris; against all ten C. auris strains tested (AR Bank #381-390). The essentials: as §1
For assay [19], the system named is ten other fungal strains (AR Bank #391-400). As to the kind of experiment: MIC determination, summary over ten additional fungal strains. It is filed as cell-based. To be noted: read-out: MIC range. The procedure: as §2, §3

The MIC is the lowest concentration found to suppress growth. Regarding `O=C(NNc1cc(F)cc(F)c1)c1ccccn1` [Compound 2i], the MIC in assay [1] was 0.98 µg/mL (≈ 3.93 µM); in [2], 0.12 µg/mL (≈ 0.482 µM); in assay [3], 0.24 µg/mL (≈ 0.963 µM); in assay [4] it was 0.24 µg/mL (≈ 0.963 µM); in [5], no more than 0.06 µg/mL; in assay [6], 0.24 µg/mL (≈ 0.963 µM). The MIC in assay [7] turned out to be 0.24 µg/mL (≈ 0.963 µM); in assay [8], 0.24 µg/mL (≈ 0.963 µM); in [9] it was 0.24 µg/mL (≈ 0.963 µM); in assay [10], 0.49 µg/mL (≈ 1.97 µM); in assay [11], 0.24 µg/mL (≈ 0.963 µM); in [12], 0.49 µg/mL (≈ 1.97 µM). For the same molecule, the minimum inhibitory concentration (MIC) in assay [13] was 0.24 µg/mL (≈ 0.963 µM); in assay [14], 0.12 µg/mL (≈ 0.482 µM); in assay [15], 0.49 µg/mL (≈ 1.97 µM); in [16], 0.12 µg/mL (≈ 0.482 µM); in assay [17], 1.95 µg/mL (≈ 7.82 µM); in [18] it was 0.06 to 1.95 µg/mL (≈ 0.241 to 7.82 µM). The MIC in assay [19] lay within 0.06 to 1.95 µg/mL (≈ 0.241 to 7.82 µM).

For `O=C(NNc1cc(Cl)cc(Cl)c1)c1ccccn1` [Compound 2j], the minimal inhibitory concentration (MIC) in [1] was 3.9 µg/mL (≈ 13.8 µM); in assay [2], 0.98 µg/mL (≈ 3.47 µM); in assay [3], 1.95 µg/mL (≈ 6.91 µM); in assay [4] it was 1.95 µg/mL (≈ 6.91 µM); in assay [5] it was 1.98 µg/mL (≈ 7.02 µM); in [6] it was 0.98 µg/mL (≈ 3.47 µM). Also, the MIC was 3.9 µg/mL (≈ 13.8 µM) in [7]; 1.95 µg/mL (≈ 6.91 µM) in [8]; 0.98 µg/mL (≈ 3.47 µM) in [9]; 0.98 µg/mL (≈ 3.47 µM) in [10]; 0.49 µg/mL (≈ 1.74 µM) in [11]; 0.24 µg/mL (≈ 0.851 µM) in assay [12]. Also, the MIC was 0.24 µg/mL (≈ 0.851 µM) in [13]; 0.49 µg/mL (≈ 1.74 µM) in [14]; 3.9 µg/mL (≈ 13.8 µM) in [15]; 0.49 µg/mL (≈ 1.74 µM) in [16]; 3.9 µg/mL (≈ 13.8 µM) in [17]; 0.12 to 7.8 µg/mL (≈ 0.425 to 27.6 µM) in assay [18]. In addition, in assay [19], the MIC was 0.06 to 7.8 µg/mL (≈ 0.213 to 27.6 µM).

Consider `O=C(NNc1cccc(Cl)c1)c1cnccn1` [Compound 9b], for which the minimal inhibitory concentration (MIC) in assay [1] was 0.49 µg/mL (≈ 1.97 µM); in [2] it was 0.12 µg/mL (≈ 0.483 µM); in assay [3] it was 0.24 µg/mL (≈ 0.965 µM); in assay [4] it was 0.24 µg/mL (≈ 0.965 µM); in [5] it was no more than 0.06 µg/mL; in [6], 0.24 µg/mL (≈ 0.965 µM). Moreover, the MIC in assay [7] turned out to be 0.24 µg/mL (≈ 0.965 µM); in assay [8], 0.24 µg/mL (≈ 0.965 µM); in assay [9] it was 0.24 µg/mL (≈ 0.965 µM); in assay [10], 0.12 µg/mL (≈ 0.483 µM); in assay [11] it was 0.12 µg/mL (≈ 0.483 µM); in [12], 0.24 µg/mL (≈ 0.965 µM). The MIC in [13] was 0.24 µg/mL (≈ 0.965 µM); in assay [14] it was 0.12 µg/mL (≈ 0.483 µM); in assay [15], 0.49 µg/mL (≈ 1.97 µM); in assay [16], 0.12 µg/mL (≈ 0.483 µM); in assay [17] it was 0.98 µg/mL (≈ 3.94 µM); in [18] it was 0.06 to 1.95 µg/mL (≈ 0.241 to 7.84 µM). Besides, the MIC in [19] lay in the range of 0.06 to 1.95 µg/mL (≈ 0.241 to 7.84 µM).

Take `COc1ccc(NNC(=O)c2cnccn2)cc1` [Compound 9f]: the MIC in [1] amounted to 1.95 µg/mL (≈ 7.98 µM); in assay [2] it was 0.98 µg/mL (≈ 4.01 µM); in [3], 0.98 µg/mL (≈ 4.01 µM); in [4] it was 0.98 µg/mL (≈ 4.01 µM); in [5], 0.49 µg/mL (≈ 2.01 µM); in [6], 1.95 µg/mL (≈ 7.98 µM). Moreover, the MIC in [7] is 0.98 µg/mL (≈ 4.01 µM); in assay [8] it was 0.98 µg/mL (≈ 4.01 µM); in assay [9], 0.49 µg/mL (≈ 2.01 µM); in assay [10] it was 0.49 µg/mL (≈ 2.01 µM); in [11], 0.49 µg/mL (≈ 2.01 µM); in [12] it was 0.24 µg/mL (≈ 0.983 µM). The MIC in assay [13] is 0.49 µg/mL (≈ 2.01 µM); in assay [14], 0.49 µg/mL (≈ 2.01 µM); in assay [15], 0.98 µg/mL (≈ 4.01 µM); in [16] it was 0.98 µg/mL (≈ 4.01 µM); in assay [17], 0.98 µg/mL (≈ 4.01 µM); in [18], 0.06 to 1.95 µg/mL (≈ 0.246 to 7.98 µM). Further, the minimum inhibitory concentration (MIC) in assay [19] lay within 0.06 to 1.95 µg/mL (≈ 0.246 to 7.98 µM).
